# What was measured:
# Type in all cases: in vivo
# [1] = tested on: field corn (Zea mays L., var. Dekalb 535, CORN); test: Post-emerge greenhouse test, crop damage rating; conditions: 14 days after application; for crop damage rating CORN: scale 0-100
# Outline: (§1)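 Compounds in acetone with 0.25% v/v non-ionic surfactant were track-sprayed at 187 l/ha over plants at the 2-3 leaf stage, at 63 to 1000 g ai/ha. Pots were bottom-watered. Injury was scored visually 14 days later on a 0-100 scale, where 0 is no damage and 100 is complete plant death.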
# [2] = tested on: upland rice (Oryza sp., var.Tebonnet, RICE); test: Post-emerge greenhouse test, crop damage rating; conditions: 14 days after application; for crop damage rating RICE: scale 0-100
# Outline: as §1
# [3] = tested on: soybean (Glycine max L., var. Pella 86, SOY); test: Post-emerge greenhouse test, crop damage rating; set-up: key to crop damage rating SOY: 0-100 scale: 0 = no damage, 100 = complete death of all plants; conditions: 14 days after application; for crop damage rating SOY: scale 0-100
# Outline: as §1
# [4] = tested on: soybean (Glycine max L., var. Pella 86, SOY); test: Pre-emerge greenhouse test, crop damage rating; set-up: key to SOY crop damage rating: 0 = no damage, 100 = complete death of all plants; conditions: 14 days after application, rating scale 0-100
# Outline: (§2)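 Seeds sown in sandy loam mix one day before track-sprayer application of compounds in acetone at 125–1000 g ai/ha (187 l/ha), then surface-watered to incorporate and bottom-watered. Visual rating 14 days after application on a 0–100 scale (0 = no damage, 100 = all plants dead).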
# [5] = tested on: common ragweed (Ambrosia artemisiifolia L., AMBEL); test: Post-emerge greenhouse herbicide test, phytotoxicity rating; conditions: 14 days after application; for phytotoxicity rating AMBEL: scale 0-100
# Outline: as §1
# [6] = tested on: Johnsongrass (Sorghum halepense, SORHA); test: as above; conditions: 14 days after application; for phytotoxicity rating SORHA: scale 0-100
# Outline: as §1
# [7] = tested on: large crabgrass (Digitaria sanguinalis, DIGSA); test: as above; conditions: 14 days after application; for phytotoxicity rating DIGSA: scale 0-100
# Outline: as §1
# [8] = tested on: barnyardgrass (Echinochloa crusgalli, ECHCG); test: as above; conditions: 14 days after application; for phytotoxicity rating ECHCG: scale 0-100
# Outline: as §1
# [9] = tested on: redroot pigweed (Amaranthus retroflexus, AMARE); test: as above; conditions: 14 days after application; for phytotoxicity rating AMARE: scale 0-100
# Outline: as §1
# [10] = tested on: sicklepod (Cassia obtusifolia, CASOB); test: as above; conditions: 14 days after application; for phytotoxicity rating CASOB: scale 0-100
# Outline: as §1
# [11] = tested on: green foxtail (Setaria viridis, SETVI); test: as above; conditions: 14 days after application; for phytotoxicity rating SETVI: scale 0-100
# Outline: as §1
# [12] = tested on: velvetleaf (Abutilon theophrasti, ABUTH); test: as above; conditions: 14 days after application; for phytotoxicity rating ABUTH: scale 0-100
# Outline: as §1
# [13] = tested on: lambsquarters (Chenopodium album, CHEAL); test: as above; conditions: 14 days after application; for phytotoxicity rating CHEAL: scale 0-100
# Outline: as §1
# [14] = tested on: ivyleaf morningglory (Ipomoea hederacea, IPOHE); test: as above; conditions: 14 days after application; for phytotoxicity rating IPOHE: scale 0-100
# Outline: as §1
# [15] = tested on: Johnsongrass (Sorghum halepense, SORHA); test: Pre-emerge greenhouse herbicide test, phytotoxicity rating; conditions: 14 days after application, rating scale 0-100
# Outline: as §2
# [16] = tested on: large crabgrass (Digitaria sanguinalis, DIGSA); test: as above; conditions: 14 days after application, rating scale 0-100
# Outline: as §2
# [17] = tested on: barnyardgrass (Echinochloa crusgalli, ECHCG); test: as above; conditions: 14 days after application, rating scale 0-100
# Outline: as §2
# [18] = tested on: redroot pigweed (Amaranthus retroflexus, AMARE); test: as above; conditions: 14 days after application, rating scale 0-100
# Outline: as §2
# [19] = tested on: sicklepod (Cassia obtusifolia, CASOB); test: as above; conditions: 14 days after application, rating scale 0-100
# Outline: as §2
# [20] = tested on: green foxtail (Setaria viridis, SETVI); test: as above; conditions: 14 days after application, rating scale 0-100
# Outline: as §2
# [21] = tested on: velvetleaf (Abutilon theophrasti, ABUTH); test: as above; conditions: 14 days after application, rating scale 0-100
# Outline: as §2
# [22] = tested on: lambsquarters (Chenopodium album, CHEAL); test: as above; conditions: 14 days after application, rating scale 0-100
# Outline: as §2
# [23] = tested on: ivyleaf morningglory (Ipomoea hederacea, IPOHE); test: as above; conditions: 14 days after application, rating scale 0-100
# Outline: as §2
# [24] = tested on: common ragweed (Ambrosia artemisiifolia L., AMBEL); test: as above; conditions: 14 days after application, rating scale 0-100
# Outline: as §2
# [25] = tested on: field corn (Zea mays L., var. Dekalb 535, CORN); test: Pre-emerge greenhouse test, crop damage rating; conditions: 14 days after application, rating scale 0-100
# Outline: as §2
# [26] = tested on: upland rice (Oryza sp., var.Tebonnet, RICE); test: Pre-emerge greenhouse test, crop damage rating; conditions: 14 days after application, rating scale 0-100
# Outline: as §2
smiles,measurement,setting,value
CC(C)S(=O)(=O)c1cccnc1Oc1cc(-n2c(=O)n3n(c2=S)CCCC3)c(F)cc1Cl [Compound 8-37],crop damage rating CORN,[1]; rate 63 g ai/ha,0
same,crop damage rating CORN,[1]; rate 500 g ai/ha,40
same,crop damage rating RICE,[2]; rate 63 g ai/ha,0
same,crop damage rating RICE,[2]; rate 500 g ai/ha,35
same,crop damage rating SOY,[3]; rate 63 g ai/ha,90
same,crop damage rating SOY,[3]; rate 500 g ai/ha,100
same,SOY crop damage rating,[4]; Rate 125 g al/ha,50
same,SOY crop damage rating,[4]; Rate 500 g al/ha,80
same,phytotoxicity rating AMBEL,[5]; rate 63 g ai/ha,30
same,phytotoxicity rating AMBEL,[5]; rate 500 g ai/ha,60
same,phytotoxicity rating SORHA,[6]; rate 63 g ai/ha,0
same,phytotoxicity rating SORHA,[6]; rate 500 g ai/ha,50
same,phytotoxicity rating DIGSA,[7]; rate 63 g ai/ha,0
same,phytotoxicity rating DIGSA,[7]; rate 500 g ai/ha,0
same,phytotoxicity rating ECHCG,[8]; rate 63 g ai/ha,0
same,phytotoxicity rating ECHCG,[8]; rate 500 g ai/ha,10
same,phytotoxicity rating AMARE,[9]; rate 63 g ai/ha,90
same,phytotoxicity rating AMARE,[9]; rate 500 g ai/ha,95
same,phytotoxicity rating CASOB,[10]; rate 63 g ai/ha,100
same,phytotoxicity rating CASOB,[10]; rate 500 g ai/ha,95
same,phytotoxicity rating SETVI,[11]; rate 63 g ai/ha,0
same,phytotoxicity rating SETVI,[11]; rate 500 g ai/ha,30
same,phytotoxicity rating ABUTH,[12]; rate 63 g ai/ha,100
same,phytotoxicity rating ABUTH,[12]; rate 500 g ai/ha,100
same,phytotoxicity rating CHEAL,[13]; rate 63 g ai/ha,90
same,phytotoxicity rating CHEAL,[13]; rate 500 g ai/ha,90
same,phytotoxicity rating IPOHE,[14]; rate 63 g ai/ha,95
same,phytotoxicity rating IPOHE,[14]; rate 500 g ai/ha,80
same,SORHA phytotoxicity rating,[15]; Rate 125 g al/ha,20
same,SORHA phytotoxicity rating,[15]; Rate 500 g al/ha,80
same,DIGSA phytotoxicity rating,[16]; Rate 125 g al/ha,80
same,DIGSA phytotoxicity rating,[16]; Rate 500 g al/ha,100
same,ECHCG phytotoxicity rating,[17]; Rate 125 g al/ha,30
same,ECHCG phytotoxicity rating,[17]; Rate 500 g al/ha,100
same,AMARE phytotoxicity rating,[18]; Rate 125 g al/ha,100
same,AMARE phytotoxicity rating,[18]; Rate 500 g al/ha,100
same,CASOB phytotoxicity rating,[19]; Rate 125 g al/ha,0
same,CASOB phytotoxicity rating,[19]; Rate 500 g al/ha,80
same,SETVI phytotoxicity rating,[20]; Rate 125 g al/ha,100
same,SETVI phytotoxicity rating,[20]; Rate 500 g al/ha,100
same,ABUTH phytotoxicity rating,[21]; Rate 125 g al/ha,100
same,ABUTH phytotoxicity rating,[21]; Rate 500 g al/ha,100
same,CHEAL phytotoxicity rating,[22]; Rate 125 g al/ha,100
same,CHEAL phytotoxicity rating,[22]; Rate 500 g al/ha,100
same,IPOHE phytotoxicity rating,[23]; Rate 125 g al/ha,30
same,IPOHE phytotoxicity rating,[23]; Rate 500 g al/ha,85
same,AMBEL phytotoxicity rating,[24]; Rate 125 g al/ha,100
same,AMBEL phytotoxicity rating,[24]; Rate 500 g al/ha,100
same,CORN crop damage rating,[25]; Rate 125 g al/ha,0
same,CORN crop damage rating,[25]; Rate 500 g al/ha,25
same,RICE crop damage rating,[26]; Rate 125 g al/ha,10
same,RICE crop damage rating,[26]; Rate 500 g al/ha,80
O=c1n(-c2cc(Oc3ccccc3)c(Cl)cc2F)c(=S)n2n1CCCC2 [Compound 8-5],CORN crop damage rating (0-100),[1]; 63 g al/ha,5
same,CORN crop damage rating (0-100),[1]; 500 g al/ha,20
same,RICE crop damage rating (0-100),[2]; 63 g al/ha,0
same,RICE crop damage rating (0-100),[2]; 500 g al/ha,10
same,SOY crop damage rating (0-100),[3]; 63 g al/ha,50
same,SOY crop damage rating (0-100),[3]; 500 g al/ha,85
same,crop damage rating SOY,[4]; 125 g ai/ha,0
same,crop damage rating SOY,[4]; 500 g ai/ha,40
same,AMBEL phytotoxicity rating (0-100),[5]; 63 g al/ha,55
same,AMBEL phytotoxicity rating (0-100),[5]; 500 g al/ha,100
same,SORHA phytotoxicity rating (0-100),[6]; 63 g al/ha,10
same,SORHA phytotoxicity rating (0-100),[6]; 500 g al/ha,60
same,DIGSA phytotoxicity rating (0-100),[7]; 63 g al/ha,0
same,DIGSA phytotoxicity rating (0-100),[7]; 500 g al/ha,70
same,ECHCG phytotoxicity rating (0-100),[8]; 63 g al/ha,20
same,ECHCG phytotoxicity rating (0-100),[8]; 500 g al/ha,55
same,AMARE phytotoxicity rating (0-100),[9]; 63 g al/ha,100
same,AMARE phytotoxicity rating (0-100),[9]; 500 g al/ha,100
same,CASOB phytotoxicity rating (0-100),[10]; 63 g al/ha,55
same,CASOB phytotoxicity rating (0-100),[10]; 500 g al/ha,100
same,SETVI phytotoxicity rating (0-100),[11]; 63 g al/ha,30
same,SETVI phytotoxicity rating (0-100),[11]; 500 g al/ha,65
same,ABUTH phytotoxicity rating (0-100),[12]; 63 g al/ha,100
same,ABUTH phytotoxicity rating (0-100),[12]; 500 g al/ha,100
same,CHEAL phytotoxicity rating (0-100),[13]; 63 g al/ha,100
same,CHEAL phytotoxicity rating (0-100),[13]; 500 g al/ha,100
same,IPOHE phytotoxicity rating (0-100),[14]; 63 g al/ha,90
same,IPOHE phytotoxicity rating (0-100),[14]; 500 g al/ha,100
same,phytotoxicity rating SORHA,[15]; 125 g ai/ha,20
same,phytotoxicity rating SORHA,[15]; 500 g ai/ha,30
same,phytotoxicity rating DIGSA,[16]; 125 g ai/ha,40
same,phytotoxicity rating DIGSA,[16]; 500 g ai/ha,85
same,phytotoxicity rating ECHCG,[17]; 125 g ai/ha,0
same,phytotoxicity rating ECHCG,[17]; 500 g ai/ha,60
same,phytotoxicity rating AMARE,[18]; 125 g ai/ha,95
same,phytotoxicity rating AMARE,[18]; 500 g ai/ha,100
same,phytotoxicity rating CASOB,[19]; 125 g ai/ha,30
same,phytotoxicity rating CASOB,[19]; 500 g ai/ha,95
same,phytotoxicity rating SETVI,[20]; 125 g ai/ha,80
same,phytotoxicity rating SETVI,[20]; 500 g ai/ha,100
same,phytotoxicity rating ABUTH,[21]; 125 g ai/ha,100
same,phytotoxicity rating ABUTH,[21]; 500 g ai/ha,100
same,phytotoxicity rating CHEAL,[22]; 125 g ai/ha,100
same,phytotoxicity rating CHEAL,[22]; 500 g ai/ha,100
same,phytotoxicity rating IPOHE,[23]; 125 g ai/ha,0
same,phytotoxicity rating IPOHE,[23]; 500 g ai/ha,70
same,phytotoxicity rating AMBEL,[24]; 125 g ai/ha,40
same,phytotoxicity rating AMBEL,[24]; 500 g ai/ha,100
same,crop damage rating CORN,[25]; 125 g ai/ha,0
same,crop damage rating CORN,[25]; 500 g ai/ha,5
same,crop damage rating RICE,[26]; 125 g ai/ha,0
same,crop damage rating RICE,[26]; 500 g ai/ha,25

# Source: patent publication US6479435B1, “Diaryl ethers and processes for their preparation and herbicidal and desiccant compositions containing them” (ISK Americas Incorporated, priority 1997, dated 2002)
